Source: patent US20230390234A1, “COMPOSITION INHIBITING MUSCLE LOSS OR PROMOTING MUSCLE FORMATION THROUGH SKIN-DERIVED EXOSOMES” (EX HEALTHCARE INC., priority 2021, published 2023)

How the values were obtained:
atrogin-1 [1] = assay: Muscle loss marker protein level in differentiated C2C12 cells, western blotting; assay type: cell-based, mouse; settings: differentiated C2C12, 48 hours; betaine 0.1 or 0.5 mM or exosomes, FIG. 6
Procedure: (§1) C2C12 cells were inoculated onto a 6-well plate at a concentration of 5×10^5 cells/well and cultured for 24 hours. Thereafter, the medium was exchanged with a medium supplemented with 2% horse serum, and the cells were further cultured for 72 hours to promote the differentiation of C2C12 cells. After the differentiation was completed, the cells were treated with betaine (0.1 and 0.5 mM) or fibroblast-derived exosomes and further cultured for 48 hours. Thereafter, cells were lysed by adding a lysis buffer (1% NP40, 0.05 M Tris-HCl, pH 7.5, 0.15 M NaCl and 0.01 MgCl2) including a protease inhibitor to the C2C12 cells, and the concentration of proteins was measured by a […] (BCA) method. The quantified protein was separated with SDS-PAGE and transferred to a PVDF membrane, and the protein expression level of each muscle loss marker was confirmed with an antibody.

MURF1 [2] = assay: as above; assay type: cell-based, mouse; settings: differentiated C2C12, 48 hours; betaine 0.1 or 0.5 mM or exosomes, FIG. 6
Procedure: as §1

myostatin [3] = assay: as above; assay type: cell-based, mouse; settings: differentiated C2C12, 48 hours; betaine 0.1 or 0.5 mM or exosomes, FIG. 6
Procedure: as §1

[4] = system: human fibroblast HS68 (FB); assay: Cytotoxicity of betaine, CCK-8 cell viability in fibroblasts; assay type: cell-based; settings: betaine at different concentrations, 24 hours, CCK-8, FIG. 1A
Procedure: (§2) As human skin dermal cells, normal human dermal fibroblasts (NHDF, fibroblasts) isolated from adult samples were purchased from LONZA (Cat. CC-2511). As […], C2C12 cells, which are myoblasts isolated and cultured from C3H mice, were purchased from ATCC (CRL-1772).
(§3) Subcultured passage 27 human fibroblast HS68 (hereinafter referred to as FB) or C2C12 was inoculated onto a 96-well plate at a concentration of 1×10^4 cells/well and cultured in an incubator at 5% CO2 and 37° C. for 24 hours. After culturing, cells were treated with betaine at different concentrations and additionally cultured for 24 hours, and an untreated group was used as a control. After the cells were washed with PBS, the cells were additionally cultured with CCK-8 (DONGJIN, CK04-11) for 2 hours, and absorbance was measured at 450 nm using a microplate reader. From the measured results, relative cell viability according to the betaine treatment concentration was calculated by setting the value of the control to 100.

C2C12 cells = assay: Cytotoxicity of betaine, CCK-8 cell viability in myofibroblasts; assay type: cell-based, mouse; settings: betaine at different concentrations, 24 hours, CCK-8, FIG. 1B
Procedure: as §2, §3

atrogin-1 [5] = assay: Muscle loss marker expression in differentiated C2C12 cells, qPCR; assay type: cell-based, mouse; settings: differentiated C2C12, 48 hours; betaine 0.1 mM or exosomes about 20 μg/ml, FIG. 4B
Procedure: (§4) C2C12 cells were inoculated onto a 6-well plate at a concentration of 1.5×10^5 cells/well and cultured for 24 hours. Thereafter, the medium was exchanged with a medium supplemented with 2% horse serum, and the cells were further cultured for 72 hours to promote the differentiation of C2C12 cells. After the differentiation was completed, the cells were treated with betaine at 0.1 mM or fibroblast-derived exosomes (about 20 μg/ml) obtained in Example 1-2 and further cultured for 48 hours. Total RNA was extracted with an RNeasy plus mini kit and cDNA was synthesized with SuperScript™ III (Invitrogen, USA). Thereafter, qPCR was performed with a target gene taqman probe, and then analysis was performed.

MURF1 [6] = assay: as above; assay type: cell-based, mouse; settings: differentiated C2C12, 48 hours; betaine 0.1 mM or exosomes about 20 μg/ml, FIG. 4A
Procedure: as §4
(§5) C2C12 cells were inoculated onto a 6-well plate at a concentration of 1.5×10^5 cells/well and cultured for 24 hours. Thereafter, the medium was exchanged with a medium supplemented with 2% horse serum, and the cells were further cultured for 72 hours to promote the differentiation of C2C12 cells. After the differentiation was completed, the cells were treated with the Camellia japonica flower extract at 50 ppm or the exosomes (about 20 μg/ml) obtained in Example 4-1 and further cultured for 48 hours. Thereafter, the change in expression of the target gene was confirmed by qPCR by the method in Example 2-1.

myostatin [7] = assay: as above; assay type: cell-based, mouse; settings: differentiated C2C12, 48 hours; betaine 0.1 mM or exosomes about 20 μg/ml, FIG. 4C
Procedure: as §4, §5

MyoD [8] = assay: Myogenesis marker protein level in differentiated C2C12 cells, western blotting; assay type: cell-based, mouse; settings: differentiated C2C12, 48 hours; betaine 0.1 or 0.5 mM or exosomes, FIG. 7
Procedure: as §1

MyoD [9] = assay: Myogenesis marker expression in differentiated C2C12 cells, qPCR; assay type: cell-based, mouse; settings: differentiated C2C12, 48 hours; betaine 0.1 mM or exosomes about 20 μg/ml, FIG. 5
Procedure: as §4

miRNA-26a = assay: Level of miRNA-26a in exosomes isolated from treated fibroblasts (real-time qPCR); assay type: cell-based, human
Procedure: After treating the subcultured passage 27 FB with betaine for 48 hours, the medium was collected and centrifuged at 3000×g for 30 minutes. After centrifugation, only the supernatant was recovered and transferred to Ultra-15 Centrifugal Filter Units (Amicon, MERCK, C7715) and centrifuged at 4000×g for 40 minutes. Only the supernatant was recovered, Total Exosome Isolation Reagent (Invitrogen, Cat No #4478539) was added at ½ the volume of the supernatant, and the mixture was allowed to react at 4° C. overnight. The next day, after centrifugation at 10000×g for 1 hour, the supernatant was removed by suction, and then a final exosome pellet was re-suspended in PBS. The exosomes obtained in the present example are hereinafter referred to as “fibroblast-derived exosomes”.
2×10^6 FB cells were inoculated onto a 75 T flask, cultured for 24 hours, and then treated with betaine (0.1, 1 and 10 mM). After the cells were additionally cultured for 48 hours, exosomes were isolated by the method of Example 1-2, and microRNA (hereinafter described as miRNA) was extracted from the exosomes isolated from the culture medium using an RNeasy plus mini kit (Qiagen, Germany) according to the manufacturer's protocol.
Real-time qPCR was performed with a tagman probe targeting mature RNA. The relative expression level of the intracellular target miRNA was normalized with the expression level of RNU48, which is used as a housekeeping gene during miRNA quantification, and then shown as a relative %. The relative expression of miRNA-26a in exosomes was normalized with the expression of […], which is used as a housekeeping gene during quantification of miRNA in fibroblast exosomes, and then shown as a relative %. For all real-time qPCR analyses, an Applied Biosystems 7500 (Applied Biosystems) apparatus was used.
The FB was treated with the material shown in the following Table 1 to isolate exosomes in the same manner as in Example 1-1, and the level of miRNA-26a was confirmed in the exosomes by the method in Example 1-4.
Thereafter, after fibroblasts (FB) were treated with the Camellia japonica flower extract for 48 hours, exosomes were isolated by the method in Example 1-2. Furthermore, the level of miR-26a was confirmed in exosomes isolated from the culture medium by the method in Example 1-4. As a result of the confirmation, it could be confirmed that the level of miRNA-26a was increased in the exosomes isolated from the FB treated with the Camellia flower extract at a concentration of 50 ppm compared to the control which was an untreated group (FIG. 9).

In the case of C[N+](C)(C)CC(=O)O [Betaine], the “protein expression of atrogin-1 (western blotting)” value (atrogin-1 [1]) is reported as “no change”, the “protein expression of MURF1 (western blotting)” value (MURF1 [2]) is reported as “no change” and the “protein expression of myostatin (western blotting)” value (myostatin [3]) is reported as “no change”. For the same compound, the “cell viability of FB” value [4] was “no change”, the “cell viability of C2C12” value (C2C12 cells) was “no change” and the “expression of atrogin-1 (qPCR) vs. control” value (atrogin-1 [5]) was “slightly increased”. The “expression of MURF1 (qPCR) vs. control” value (MURF1 [6]) was “slightly increased”, the “expression of myostatin (qPCR) vs. control” value (myostatin [7]) was “almost the same level” and the “protein expression of MyoD (western blotting)” value (MyoD [8]) was “unchanged”. For the same compound, the “expression of MyoD (qPCR) vs. control” value (MyoD [9]) was “increased compared to the control, but was not at a significant level”, the “miRNA-26a level in exosomes, fold change (vs. control)” value (miRNA-26a; FB treated with 1 mM) was 1.821 fold and the “level of miRNA-26a in exosomes vs. untreated control” value (miRNA-26a; FB treated with betaine 0.1, 1 and 10 mM, 48 hours, FIG. 3) was “increased”.

In the case of O=c1c(O)c(-c2cc(O)c(O)c(O)c2)oc2cc(O)cc(O)c12 [Myricetin], the “miRNA-26a level in exosomes, fold change (vs. control)” value (miRNA-26a; FB treated with 25 uM) is reported as 1.599 fold.

O=C1C[C@@H](c2ccc(O)cc2)Oc2cc(O)cc(O)c21 [Naringenin] was tested, and the “miRNA-26a level in exosomes, fold change (vs. control)” value (miRNA-26a; FB treated with 10 uM) was 1.854 fold.

For COc1ccc(-c2cc(=O)c3c(OC)c(OC)c(OC)c(OC)c3o2)cc1OC [Nobiletin], the “miRNA-26a level in exosomes, fold change (vs. control)” value (miRNA-26a; FB treated with 30 uM) was 1.447 fold.

With Camelliaside A the “miRNA-26a level in exosomes, fold change (vs. control)” value (miRNA-26a; FB treated with 1 ppm) was 1.956 fold.

With Copper Tripeptide the “miRNA-26a level in exosomes, fold change (vs. control)” value (miRNA-26a; FB treated with 10 ppm) was 1.743 fold.

For Kojyl carboxy dipeptide-23, the “miRNA-26a level in exosomes, fold change (vs. control)” value (miRNA-26a; FB treated with 10 ppm) was 1.483 fold.

With L-carnosine the “miRNA-26a level in exosomes, fold change (vs. control)” value (miRNA-26a; FB treated with 5 ppm (0.0005%)) was 1.537 fold.
